Measured values from patent US20080242594A1, “Methods for Promoting Stem Cell Proliferation and Survival” (priority 2005, published 2008).

What was measured:
[1] = system: murine E13.5 cortical stem cell cultures; assay: Real-time imaging of lineage, death events and cell cycle; format: cell-based, mouse; conditions: from 4 hours after plating, compared to controls
Experimental: FIGS. 1a-1f are a set of images showing that Notch ligands stimulate survival in CNS stem cell (CNS SC) cultures. FIG. 1a is a bar graph […] the effect of Notch activation by Jagged-1, Delta-4, or combination in the presence of FGF2 for 5 days on plating efficiency, colony size, and BrdU incorporation (following a 4 hour BrdU pulse), over control treatments (FGF2 alone) FIG. 1b is a graph showing lineage and death events in murine E13.5 cortical stem cell cultures in the presence of FGF2 or FGF2 and Delta-4 (“D4”), D114 inhibits cell death in real-time cell lineage experiments (“x” marks time of death). CNS stem cells from embryonic day 13.5 mouse cerebral cortex were plated following one passage and visualized in real-time for 36 hours (images were taken every 2 min). Lineage and death events are represented. Cells were cultured in a closed gas chamber at 37° C. and images of selected fields were taken every two minutes. FIG. 1c is a line graph showing accumulative real-time imaging representation of death even times over 36 hours in culture with or without Delta-4. […] Cell cycle durations for the first two divisions are shown. FIG. 1e is a bar graph showing Delta-4 treatment of CNS SC cultures replaced the requirement for insulin in the medium in a plating efficiency assay. […] In the graphs, data represent Means ±standard deviation (SD). […]

Notch1 = assay: Notch activation (Notch1IC / Notch ICD) immunocytochemical detection; format: cell-based, mouse; conditions: Insulin withdrawal, 2 days and then treat for 1 h
Excerpt: Antibodies were used that specifically bind: Notch1IC (Chemicon, 5352), GFP (Molecular Probes, A11122), Oct3/4 (Santa Cruz, sc-5279), SSEA1 and SSEA4 (Developmental Studies HybridomaBank), Tra-1-60 (Chemicon, MAB4360), Tra-1-81 (Chemicon, MAB4381), human nestin (Chemicon, MAB5326), Sox-1 (Gift from Dr. R Lovell-Badge), TH (Pel-Freez, P40101-0), Tuj1 (Covance, MMS-435P), rat nestin (McKay Lab), GFAP (Dako, z0334), CNPase (Chemicon, MAB326), BrdU (Accurate, H5903), DCX (Santa Cruz, sc-8066), Sox2 (R&D, MAB2018), Hu (Molecular Probes, A21271).
To assay for Notch activation, cultures were treated with the Notch ligands for 1 hour and Notch1 activation was detected by immunocytochemical staining of Notch1IC (FIG. 1b).
It was determined that insulin facilitates Notch cleavage using immunocytochemical detection.

[2] = system: Primary human central nervous system neural stem cell from pediatric subventricular zones; assay: Colony generation of primary human neural stem cells; format: cell-based; conditions: expanded in FGF2
Excerpt: Pharmacological Notch activation is beneficial also to primary neural stem cell cultures from non-cancerous human brain. Primary human central nervous system neural stem cell were produced from pediatric subventricular zones. These cells expanded in FGF2, and upon FGF2 withdrawal differentiated to produce colonies containing neurons, astrocytes, and oligodendrocytes (see Table 11). […] FGF2 withdrawal and subsequent differentiation of central nervous system neural stem cell cultures (fetal mouse) regulated Hes3 expression and STAT3 expression and phosphorylation in neurons, astrocytes, oligodendrocytes.

[3] = system: cultures from Hes3 knock-out mice; assay: Survival of adult SVZ stem cell cultures, Hes3 knock-out mice; format: cell-based, mouse; conditions: Hes3 knock-out culture
Experimental: It was determined that adult mouse subventricular zone central nervous system stem cell cultures from wild-type mice respond to D114 by generating twenty-four times more cells, whereas cultures from Hes3 knock-out mice respond to D114 by generating only three times more cells. Thus, in adult mouse neural stem cell cultures, D114 greatly promotes the survival of wild-type cells (23.7±1.7 fold increase), whereas it only slightly stimulates Hes3 knock-out culture survival (2.9±0.2 fold increase).

Delta-4: soluble Notch ligand Delta-4 (1389-D4) from R&D
death events [1]: very few death events were observed
Notch ICD (Notch1): Low
colonies containing neurons, astrocytes, and oligodendrocytes [2]: generated significantly more of these colonies
survival, fold increase in cells [3]: 2.9±0.2 fold
